Consider 10 compounds from patent US20080262049A1, “Therapeutic Agent for Hematopoietic Tumor” (KYOWA HAKKO KOGYO CO., LTD., priority 2005, published 2008).

Molecules are shown by their SMILES. Counter-ions that a name gives are not always drawn. A value given as a limit tells only on which side of the number the result lay.

Series [1] deals with T1, recombinant human Eg5 motor domain protein (Homo sapiens, UniProt P52732).
T1 construct: A plasmid expressing the motor domain of human Eg5 was constructed; made in house; host or cells: Escherichia coli BL21 (DE3)
T1 sequence (P52732 18-359 limits assumed): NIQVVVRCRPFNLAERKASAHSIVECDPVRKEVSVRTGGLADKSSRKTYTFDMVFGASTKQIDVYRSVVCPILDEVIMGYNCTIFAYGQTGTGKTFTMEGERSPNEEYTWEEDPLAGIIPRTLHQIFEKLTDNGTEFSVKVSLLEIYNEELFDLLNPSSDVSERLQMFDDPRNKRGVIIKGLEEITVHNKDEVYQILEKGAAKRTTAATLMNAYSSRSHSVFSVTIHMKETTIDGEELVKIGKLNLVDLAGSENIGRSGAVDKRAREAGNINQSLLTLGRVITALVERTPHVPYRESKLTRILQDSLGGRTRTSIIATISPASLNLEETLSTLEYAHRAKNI
The series is described as follows: Eg5 enzyme inhibition test (ATPase activity). In kind it is biochemical. The note with it: for inhibition of the ATPase activity of Eg5 (in words): 30° C., 30 minutes, absorbance at 360 nm; for Eg5 inhibitory activity compared with the corresponding racemic mixture (in words): versus Compounds 3, 4, 6, 7, 20, 14, 9, 8, the respectively corresponding racemic mixtures. Here is the method:
A recombinant human Eg5 motor domain protein was prepared by referring to the literature [Biochemistry, Vol. 35, p. […] A plasmid expressing the motor domain of human Eg5 was constructed, and transformed into Eseherichia coli BL21 (DE3). The transformant was cultured at 25° C., and when the OD600 reached 0.74, isopropyl-β-D-thiogalactoside was added at a final concentration of 0.5 mmol/L. The transformant was further cultured for 4 hours, and then the culture medium was centrifuged to collect the cells. The cells were suspended in a buffer and ultrasonicated, and then the sonicated solution was centrifuged to recover the supernatant. The supernatant was purified by cation exchange column chromatography to obtain a partially purified sample. Furthermore, the partially purified sample was purified by gel filtration column chromatography to obtain a finally purified sample.
Measurement of the ATPase activity of Eg5 was carried out by referring to the literatures [EMBO Journal, Vol. 13, p. […] Solution A was dispensed into each well of a 96-well plate as 45 μL portions. Solution B was used to serially dilute a test compound. The diluted test compound solutions in a volume of 30 μL were mixed with Solution A added beforehand in each well of the 96-well plate to start the enzymatic reaction. The enzymatic reaction was performed at 30° C. for 30 minutes. […] The relative activity was calculated to calculate IC50 value.

The test system of series [2] is human acute lymphoblastic leukemia RS4;11 cells. The series is described as follows: Cell growth inhibition test against hematopoietic tumor cell lines (XTT), RS4;11. The format is cell-based. The note with it: 72 hours culture with compound, read-out: growth inhibitory activity, GI50 value. The source says:
(§1) As hematopoietic tumor cell lines, human acute lymphoblastic leukemia RS4;11 cells (ATCC No. CRL-1873), human chronic myeloid leukemia K-562 cells (ATCC No. CCL-243), and human multiple myeloma NCI-H929 cells (ATCC No. CRL-9068) were used. For the culture of the cells, RPMI 1640 Medium (Invitrogen, catalog No. 11875-093) containing 10% fetal bovine serum (Invitrogen, catalog No. 10099-141), 10 mmol/L 4-(2-hydroxyethyl)-1-piperazinethanesulfonic acid (HEPES) buffer (ICN Biomedicals, catalog No. 1688449), 1 mmol/L sodium pyruvate (Invitrogen, catalog No. 11360-070), 4.5 g/L glucose (Sigma-Aldrich, catalog No. G8769), 100 units/mL penicillin (Invitrogen, catalog No. 15140-122) and 100 μg/mL streptomycin (Invitrogen, catalog No. 15140-122) was used. The cells were cultured at 37° C. in a 5% carbon dioxide atmosphere.
(§2) RS4;11 cells (20000 cells/well), K-562 cells (1000 cells/well), or NCI-H929 cells (15000 cells/well) were seeded in each well of 96-well plates (Nunc, catalog No. 167008), and cultured overnight. Test compounds diluted stepwise were added, and the cells were further cultured for 72 hours (final volume: 100 μL/well). Fifty μL XTT labeling mixture of Cell Proliferation Kit II (XTT) (Roche Diagnostics, catalog No. 1465015) was added to each well, and the plates were incubated at 37° C. After 4 hours, absorbance at 490 nm (reference wavelength: 655 nm) was measured with a plate reader (Molecular Device, SpectraMax 340PC^384). Growth ratios of the cells in the wells treated with the test compound was calculated based on the growth ratio of the cells in the control well treated with solvent (dimethyl sulfoxide (DMSO)) for 72 hours, which was defined as 100%.
Background: Formazan colour is commonly taken as a measure of viable cells.

Series [3] concerns human acute myeloid leukemia MV-4-11 cells. The series is described as follows: Cell growth inhibition test on acute myeloid leukemia cells (XTT), MV-4-11. The conditions noted are these: MV4-11, same manner as Test Example 1, read-out: growth inhibitory activity, GI50 value. The format is cell-based. As for the experimental part:
as §2
(§3) As cancer cell lines, human acute myeloid leukemia MV-4-11 cells (ATCC No. CRL-9591) and human non-Hodgkin's lymphoma SR cells (ATCC No. CRL-2262) were used. The cells were cultured at 37° C. in a 5% carbon dioxide atmosphere by using the mediums mentioned below, respectively.
(§4) In the same manner as that of Test Example 1, the cells were seeded (8000 to 16000 cells/well, respectively) in each well of 96-well plates (Nunc, catalog No. 167008), and growth ratios of the cells treated with test compounds were calculated. Measurement of absorbance was performed at 3 to 4 hours after the addition of the XTT labeling mixture.

The test system of series [4] is human multiple myeloma NCI-H929 cells. The series is described as follows: Cell growth inhibition test against hematopoietic tumor cell lines (XTT), NCI-H929. The format is cell-based. The conditions noted are these: 72 hours culture with compound, read-out: growth inhibitory activity, GI50 value.
From the text: as §1, §2

For series [5], the system named is human chronic myeloid leukemia K-562 cells. The series is described as follows: Cell growth inhibition test against hematopoietic tumor cell lines (XTT), K-562. The format is cell-based. The conditions noted are these: K562, 72 hours culture with compound, read-out: growth inhibitory activity, GI50 value.
From the text: as §1, §2

Series [6] concerns human non-Hodgkin's lymphoma SR cells. As to the kind of experiment: Cell growth inhibition test on non-Hodgkin's lymphoma cells (XTT), SR. The format is cell-based. The note with it: same manner as Test Example 1, read-out: growth inhibitory activity, GI50 value. As for the experimental part: as §2, §3, §4

By melting point is commonly meant the temperature, or range, at which the solid turns liquid. The compound `CC(C)(C)C(=O)NC1=NN(C(=O)C(C)(C)C)C(CN)(c2ccccc2)S1` (stereo not drawn) (as salt: hydrochloride) [Compound j, N-[5-Aminomethyl-4-(2,2-dimethylpropionyl)-5-phenyl-4,5-dihydro-1,3,4-thiadiazol-2-yl]-2,2-dimethylpropanamide] gave a melting point of 175 to 182 °C.

Consider `CCNCCS(=O)(=O)NCCC1(c2ccccc2)SC(NC(=O)C(C)(C)C)=NN1C(=O)C(C)(C)C` (racemic) [Compound 14, N-{4-(2,2-Dimethylpropionyl)-5-[2-(2-ethylaminoethanesulfonylamino)-ethyl]-5-phenyl-4,5-dihydro-1,3,4-thiadiazol-2-yl}-2,2-dimethylpropanamide], for which, in series [1], the “inhibition of the ATPase activity of Eg5 (in words)” value (“inhibition” below) is recorded as “inhibited the ATPase activity of Eg5 in a concentration-dependent manner”.

In the case of `CC(=O)N1N=C(N2CCCCC2=O)SC1(CCNS(C)(=O)=O)c1ccccc1` (racemic) [Compound 20, N-{2-[3-Acetyl-5-(2-oxopiperidino)-2-phenyl-2,3-dihydro-1,3,4-thiadiazol-2-yl]ethyl}methanesulfonamide], the “inhibition” value in series [1] is “inhibited the ATPase activity of Eg5 in a concentration-dependent manner”.

By GI50 is commonly meant the concentration at which growth is held to half of that of the control. As to `CCNCCS(=O)(=O)NCCC1(c2ccccc2)SC(NC(=O)C(C)(C)C)=NN1C(=O)C(C)(C)C` (single isomer, unassigned) [Compound i, N-{4-(2,2-Dimethylpropionyl)-5-[2-(2-ethylaminoethanesulfonylamino)-ethyl]-5-phenyl-4,5-dihydro-1,3,4-thiadiazol-2-yl}-2,2-dimethylpropanamide], the GI50 in series [2], in series [3], in series [4], in series [5] and in series [6] was less than 10 µM each time. In addition, the “inhibition” value in series [1] is on record as “inhibited the ATPase activity of Eg5 in a concentration-dependent manner”. The “Eg5 inhibitory activity compared with the corresponding racemic mixture (in words)” value in series [1] is “stronger inhibitory activities”.

Regarding `CC(C)(C)C(=O)NC1=NN(C(=O)C(C)(C)C)C(CCCC(=O)NCCO)(c2ccccc2)S1` (single isomer, unassigned) [Compound o, 4-[3-(2,2-Dimethylpropionyl)-5-(2,2-dimethylpropionylamino)-2-phenyl-2,3-dihydro-1,3,4-thiadiazol-2-yl]-N-(2-hydroxyethyl)butanamide], the GI50 in series [2], in series [3], in series [4], in series [5] and in series [6] was less than 10 µM in each case. The “inhibition” value in series [1] is recorded as “inhibited the ATPase activity of Eg5 in a concentration-dependent manner”. Further, the “Eg5 inhibitory activity compared with the corresponding racemic mixture (in words)” value in series [1] is “stronger inhibitory activities”.

Turning to `CC(C)(C)C(=O)NC1=NN(C(=O)C(C)(C)C)C(CCNS(C)(=O)=O)(c2ccccc2)S1` (single isomer, unassigned; (-)) [Compound a, (−)-N-[4-(2,2-Dimethylpropionyl)-5-(2-methanesulfonylaminoethyl)-5-phenyl-4,5-dihydro-1,3,4-thiadiazol-2-yl]-2,2-dimethylpropanamide], the 50% growth inhibitory concentration (GI50) in series [2], in series [3], in series [4], in series [5] and in series [6] was less than 10 µM throughout. Further, the “inhibition” value in series [1] is listed as “inhibited the ATPase activity of Eg5 in a concentration-dependent manner”. Further, the “Eg5 inhibitory activity compared with the corresponding racemic mixture (in words)” value in series [1] is given as “stronger inhibitory activities”.

On to `CCC(=O)N1N=C(NC(=O)C(C)(C)C)SC1(CCNS(C)(=O)=O)c1ccccc1` (single isomer, unassigned; (-)) [Compound b, (−)-N-[5-(2-Methanesulfonylaminoethyl)-5-phenyl-4-propionyl-4,5-dihydro-1,3,4-thiadiazol-2-yl]-2,2-dimethylpropanamide], for which the GI50 in series [2], in series [3], in series [4], in series [5] and in series [6] was less than 10 µM throughout. Also, the “inhibition” value in series [1] is “inhibited the ATPase activity of Eg5 in a concentration-dependent manner”. Besides, the “Eg5 inhibitory activity compared with the corresponding racemic mixture (in words)” value in series [1] is listed as “stronger inhibitory activities”.

With `CC(C)C(=O)N1N=C(NC(=O)C(C)(C)C)SC1(CCNS(C)(=O)=O)c1ccccc1` (single isomer, unassigned; (-)) [Compound d, (−)-N-[4-Isobutyryl-5-(2-methanesulfonylaminoethyl)-5-phenyl-4,5-dihydro-1,3,4-thiadiazol-2-yl]-2,2-dimethylpropanamide], the GI50 in series [2], in series [3], in series [4], in series [5] and in series [6] was less than 10 µM in each case. Besides, the “inhibition” value in series [1] was “inhibited the ATPase activity of Eg5 in a concentration-dependent manner”. Moreover, the “Eg5 inhibitory activity compared with the corresponding racemic mixture (in words)” value in series [1] is on record as “stronger inhibitory activities”.

Regarding `CCNCCS(=O)(=O)NCC1(c2ccccc2)SC(NC(=O)C(C)(C)C)=NN1C(=O)C(C)(C)C` (single isomer, unassigned; (-)) [Compound l, (−)-N-[4-(2,2-Dimethylpropionyl)-5-(2-ethylaminoethanesulfonylaminomethyl)-5-phenyl-4,5-dihydro-1,3,4-thiadiazol-2-yl]-2,2-dimethylpropanamide], the GI50 in series [2], in series [3], in series [4], in series [5] and in series [6] was less than 10 µM in each case. The “inhibition” value in series [1] was “inhibited the ATPase activity of Eg5 in a concentration-dependent manner”. The “Eg5 inhibitory activity compared with the corresponding racemic mixture (in words)” value in series [1] is given as “stronger inhibitory activities”.

In the case of `CC(C)(C)C(=O)NC1=NN(C(=O)C(C)(C)C)C(CN)(c2ccccc2)S1` (stereo not drawn) [Compound j, N-[5-Aminomethyl-4-(2,2-dimethylpropionyl)-5-phenyl-4,5-dihydro-1,3,4-thiadiazol-2-yl]-2,2-dimethylpropanamide], the GI50 in series [2], in series [4] and in series [5] was less than 10 µM in each case.
